Source: US11054425B2, “System and method for identification and characterization of transglutaminase species” (Roche Sequencing Solutions, Inc., priority 2014, dated 2021)
No end group written: not given here. *: point of attachment. Cbz = O=C(OCc1ccccc1)*

Key:
Format in all cases: biochemical, Kutzneria albida
[1] = system: KalbTG; assay: GLDH-coupled assay in solution (NADH oxidation); settings: NADH oxidation at 340 nm, 37° C.
Protocol: KalbTG activity was obtained by measuring incorporation of a biotinylated amine-donor on the peptide array and rates of NADH oxidation at 340 nm and 37° C. in the presence of amine-donor substrate (500 μM) in the GLDH-coupled assay using 100 μM each of nine of the best-performing array-selected glutamine-containing substrates and of two S. mobaraensis MTG glutamine-containing substrates. […] Testing of the top sequences in Table 1 confirmed YRYRQ (SEQ ID NO: 1) and RYRQR (SEQ ID NO 14) as the top performing 5-mer substrates, with turnover rates of 3.52±0.08 pmol NADH s^−1 and 3.60±0.12 pmol NADH s^−1, respectively.
With reference to Table 2, KalbTG activity was obtained by measuring incorporation of a biotinylated glutamine-donor and rates of NADH oxidation at 340 nm and 37° C. in the presence of glutamine-donor substrate (200 μM) in the GLDH-coupled assay using 100 μM each of i) six of the top-performing array-selected lysine substrates, ii) cadaverine, and iii) preferred MTG lysine substrate ARSKL (SEQ ID NO:30). […] This is a small but significant increase over cadaverine (3.51±0.12 pmol s^−1) or ARSKL (SEQ ID NO:30) (3.87±0.31 pmol s^−1), a peptide previously established as a preferred MTG lysine donor motif on the peptide array. Additional details on the S. mobaraensis MTG substrate peptide ARSKL (SEQ ID NO:30) can be found in U.S. Provisional Patent Application Ser. No. 62/094,495 to Albert et al. filed on Dec. 19, 2014.
For the GLDH coupled assay, to determine whether the KalbTG peptides selected in the array assay were also preferred substrates in a solution reaction and to quantify cross-reactivity of KalbTG and S. mobaraensis MTG with various substrates, a continuous glutamate dehydrogenase (GLDH)-coupled assay for S. mobaraensis MTG activity (see Oteng-Pabi, et al., 2013. Analytical biochemistry 441(2): 169-173) was applied.
For glutamine substrate evaluation, the assay was performed in a transparent 96-well microtiter plate in the presence of 500 μM α-ketoglutarate, 500 μM or 1 mM cadaverine as Amine donor substituting for a lysine-containing peptide, 2 U ml^−1 of glutamate dehydrogenase (GLDH), 500 μM NADH and glutamine-containing substrate peptide (Z-[[…] (SEQ ID NO:77)], Z-[[…] (SEQ ID NO:78)], Z-[[…] (SEQ ID NO:75)], Z-[[…] (SEQ ID NO:79)], Z-[[…] (SEQ ID NO:80)], Z-[[…] (SEQ ID NO:81)], Z-[[…] (SEQ ID NO:82)], Z-[[…] (SEQ ID NO:83)], Z-[[…] (SEQ ID NO:84)], Z-[[…] (SEQ ID NO:85)], Z-[[…] (SEQ ID NO:86)], Z-[[…] (SEQ ID NO:76)] or Z-[[…] (SEQ ID NO:87)]) concentrations ranging between 0 and 1 mM in 200 mM MOPS, 1 mM EDTA pH 7.2 (total volume per well 200 μl).
For amine substrate evaluation, assay conditions were the same as for glutamine substrate evaluation with the exception that 100 μM each of amine substrate (Z-[[…] (SEQ ID NO:88)], Z-[[…] (SEQ ID NO:89)], Z-[[…] (SEQ ID NO:90)], Z-[[…] (SEQ ID NO:91)], Z-[[…] (SEQ ID NO:92)], Z-[[…] (SEQ ID NO:93)], Z-[[…] (SEQ ID NO:94)], Z-[[…] (SEQ ID NO:95)] or cadaverine) and 200 μM glutamine donor (Z-[[…] (SEQ ID NO:75)] or Z-[[…] (SEQ ID NO:76)]) were used.
Reactions were started by the addition of 5 μg ml^−1 of S. mobaraensis MTG or KalbTG and the oxidation of NADH was continuously recorded at 340 nm for 60 minutes using a Biotek Synergy H4 microplate reader, temperature controlled at 37° C., with short shaking intervals before each measurement. After a short lag phase where the GLDH was saturated by transglutaminase-mediated release of ammonia, linear rates of absorbance versus time corresponding to transglutaminase turnover were observed and subjected to Michaelis-Menten kinetic analysis. […]

[2] = system: KalbTG; assay: 5-mer peptide array, lysine-substrate screening with biotinylated glutamine donor; settings: incorporation of biotinylated glutamine-donor on 5-mer peptide array
Description: A second round of maturation on the peptide array yielded […] (SEQ ID NO:24) as the top performing 9-mer substrate, which was then resynthesized as biotinylated peptide to act as acyl donor for the discovery of optimized lysine recognition motifs back on the 5-mer peptide array (FIG. 4B). Again, six of the best lysine-containing peptides were resynthesized and tested in the KalbTG in-solution activity assay using a peptide containing the optimized glutamine recognition sequence YRYRQ (SEQ ID NO:1) as an acyl donor (Table 2). It will be appreciated that calculation of an array signal for cadaverine was not applicable due to omission of cadaverine from the array.
(§1) For construction of the peptide array, a library of 1,360,732 unique 5-mer peptides was designed by using all combinations of 18 natural amino acids excluding cysteine and methionine, as well as any dimer or a longer repeat of the same amino acid, and any peptide containing a dipeptide selected from HR, RH, HK, KH, RK, KR, HP, and PQ sequences. The library was synthesized in duplicate on the same array by using maskless light-directed peptide array synthesis. Each 5-mer peptide was flanked on both the N-terminus and C-terminus by 3 amino acid-long linkers synthesized by using mixture of glycine and serine having a 3:1 ratio.
In order to test KalbTG specificity for lysine substrates, chemically synthesized Z-[[…] (SEQ ID NO:31)]-PEG-Biotin peptide—which includes the sequence […] (SEQ ID NO:31)—was used as a glutamine-containing substrate to biotinylate lysine-containing peptides. Array biotinylation was done as described above with 0.1 ng μl^−1 KalbTG, 0.8 μM peptide at 37° C. for 15 minutes. Note that the a “Z—” in front of a peptide or other like construct is used herein to represent a carboxybenzyl group unless stated otherwise.
Target sequence in this assay (as listed by the source): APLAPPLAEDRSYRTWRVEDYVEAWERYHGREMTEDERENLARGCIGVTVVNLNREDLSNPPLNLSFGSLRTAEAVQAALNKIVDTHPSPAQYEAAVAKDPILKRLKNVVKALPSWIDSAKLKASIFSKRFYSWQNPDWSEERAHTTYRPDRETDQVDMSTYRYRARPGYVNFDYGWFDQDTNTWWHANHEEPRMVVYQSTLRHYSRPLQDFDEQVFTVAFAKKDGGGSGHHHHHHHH

[3] = system: KalbTG; assay: 5-mer peptide array, glutamine-substrate screening with biotinylated amine donor; settings: incorporation of biotinylated amine-donor on 5-mer peptide array
Protocol: To identify potential acyl-donor and amine-donor substrates of the K. albida transglutaminase, high-throughput screening on 5-mer peptide arrays was performed (FIGS. 4A and 4B). An activity of at least 1.65 U/mg for both the SlyD-fused and the mature KalbTG enzymes was confirmed by commercial assay (Zedira MTG-ANiTA-KIT; compared to 4.3 U mg^−1 by the MTG supplied with the kit and a 0.07 U/mg blank value with BSA). The assay used β-casein as a cross-linking substrate and detected deamidation by a glutamate dehydrogenase dependent oxidation of NADPH. Specific recognition motifs were identified by assaying KalbTG with peptide arrays prepared by maskless array synthesis (U.S. Pat. Pub. No 2015/0185216 to Albert et al. filed on 19 Dec. 2014). The efficiency of the transamidation reaction between 1.4 million unique 5-mer peptides and a biotinylated amine donor was quantified on two arrays in parallel and the sequences of the peptides with the highest turnovers were determined (FIG. 4A). The nine best peptides were resynthesized and tested for KalbTG activity in a standalone GLDH-coupled assay. Note that the array signal for the sequence MLAQG (SEQ ID NO:13) is marked not applicable (n. a.) as this sequence was not included on the array. Similarly, measurement of a background signal was only applicable to experiments performed on the array.
as §1
Target sequence in this assay (as listed by the source): as above
To test KalbTG specificity for glutamine-containing substrate, N-(biotinyl)cadaverine was used as a substitute for a lysine substrate to biotinylate glutamine-peptides on a peptide array. KalbTG labeling reaction was performed in 1200 μL 100 mM Tris-HCl pH 8, 1 mM DTT, 50 μM N-(biotinyl)cadaverine, 0.2 ng μl^−1 KalbTG in SecureSeal™ chamber (Grace Bio-Labs) at 37° C. for 45 minutes. After incubation the chamber was removed and the array was washed in 20 mM Tris-HCl, pH7.8, 0.2 M NaCl, 1% SDS for 1 minute followed by a 1 minute wash in 20 mM Tris-HCl. Biotin linked to the array was stained with 0.3 μg ml^−1 Cy5-streptavidin in 10 mM Tris-HCl, pH7.4, 1% alkali-soluble casein, 0.05% TWEEN-20 non-ionic detergent at room temperature for 1 hour. Cy5 fluorescence intensity was measured with a fluorescence scanner at a resolution of 2 μm and a wavelength of 635 nm.

[4] = 100 μM amine substrate, 200 μM glutamine-donor substrate
[5] = 100 μM glutamine-containing substrate, 500 μM amine-donor substrate

Compound | Reaction rate in solution [1, 4] | Reaction rate in solution ([1]; 100 μM amine substrate, 200 μM glutamine-donor substrate, listed as cadaverine) | Array signal (log2) [2] | Reaction rate in solution [1, 5] | Array signal (log2) [3]
NCCCCCN [Cadaverine, reference compound] | 3.51 ± 0.12 pmol/s | 3.51 ± 0.12 pmol/s |  |  | 
ARSKL (Cbz-ARSKL) [preferred MTG lysine substrate, reference compound] | 3.87 ± 0.31 pmol/s |  | 12.0 log2 |  | 
AYRTK (Cbz-AYRTK) [KalbTG lysine 5-mer] | 3.65 ± 0.17 pmol/s |  | 12.57 log2 |  | 
FRQRG (Cbz-FRQRG) [KalbTG glutamine-donor 5-mer] |  |  |  | 2.11 ± 0.13 pmol/s | 8.82 log2
FRQRQ (Cbz-FRQRQ) [KalbTG glutamine-donor 5-mer] |  |  |  | 3.07 ± 0.17 pmol/s | 8.93 log2
QRQRQ (Cbz-QRQRQ) [KalbTG glutamine-donor 5-mer] |  |  |  | 2.98 ± 0.01 pmol/s | 8.77 log2
QYRQR (Cbz-QYRQR) [KalbTG glutamine-donor 5-mer] |  |  |  | 1.92 ± 0.07 pmol/s | 8.70 log2
RQRQR (Cbz-RQRQR) [KalbTG glutamine-donor 5-mer] |  |  |  | 2.06 ± 0.08 pmol/s | 8.84 log2
RYESK (Cbz-RYESK) [KalbTG lysine (K-tag) 5-mer] | 4.47 ± 0.16 pmol/s |  | 12.65 log2 |  | 
RYGKS (Cbz-RYGKS) [KalbTG lysine 5-mer] | 2.66 ± 0.11 pmol/s |  | 12.38 log2 |  | 
RYRQR (Cbz-RYRQR) [KalbTG glutamine-donor 5-mer] |  |  |  | 3.60 ± 0.12 pmol/s | 8.96 log2
RYRSK (Cbz-RYRSK) [KalbTG lysine 5-mer] | 3.26 ± 0.10 pmol/s |  | 12.45 log2 |  | 
RYSKY (Cbz-RYSKY) [KalbTG lysine (amine-donor) 5-mer] | 3.89 ± 0.04 pmol/s |  | 12.75 log2 |  | 
RYSQR (Cbz-RYSQR) [KalbTG glutamine-donor 5-mer] |  |  |  | 3.22 ± 0.10 pmol/s | 8.93 log2
YKGRG (Cbz-YKGRG) [KalbTG lysine 5-mer] | 3.01 ± 0.09 pmol/s |  | 12.25 log2 |  | 
YKYRQ (Cbz-YKYRQ) [KalbTG glutamine-donor 5-mer, lysine-containing] |  |  |  | 4.00 ± 0.18 pmol/s | 8.70 log2
